According to US8865701B2, “Spiropyrrolidine beta-secretase inhibitors for the treatment of alzheimer'S disease” (Merck Sharp & Dohme Corp., priority 2009, dated 2014):

molecular target: BACE 1 (Homo sapiens (Human), UniProt P56817); assay: ECL assay of beta-secretase (BACE) enzyme inhibition; assay type: biochemical; conditions: homogeneous end point ECL assay, biotinylated BACE substrate, soluble human enzyme, pH 6.5, rt
Description: Enzyme inhibition is determined as follows.
ECL Assay: A homogeneous end point electrochemiluminescence (ECL) assay is performed using a biotinylated BACE substrate. The Km of the substrate is approximated at 50 μM. A typical reaction contains approximately 0.6 nM enzyme, 0.25 μM of the substrate, and buffer (50 mM Pipes, pH 6.5, 0.1 mg/ml BSA, 0.2% CHAPS, 15 mM EDTA and 1 mM deferoxamine) in a total reaction volume of 100 μl. The reaction proceeds for 1-2 hrs and is then stopped by the addition of 150 μL of a quench cocktail solution (25 μl M Tris-HCl, pH 8.0, 50 μl INC buffer (2% BSA, 0.2% Tween-20 and 0.05% sodium azide diluted in Phosphate buffered saline (PBS) plus 75 μL PBS), containing Streptavidin coated magnetic beads and ruthenylated antibody which specifically recognizes the C-terminal residue of the product. The samples are subjected to M-384 (Igen Inc., Gaithersburg, Md.) analysis. Under these conditions, less than 10% of substrate is processed by BACE 1. The enzyme used in these studies is soluble (transmembrane domain and cytoplasmic extension excluded) human protein produced in a baculovirus expression system. To measure the inhibitory potency for compounds, 10 concentrations of inhibitors are prepared starting from 200 μM with three fold series dilution. Solutions of the inhibitor in DMSO are included in the reaction mixture (final DMSO concentration is 10%). All experiments are conducted at rt using the standard reaction conditions described above. To determine the IC50 of the compound, a four parameter equation is used for curve fitting. The errors in reproducing the dissociation constants are typically less than two-fold.

Sequence of BACE 1 (P56817 46-457): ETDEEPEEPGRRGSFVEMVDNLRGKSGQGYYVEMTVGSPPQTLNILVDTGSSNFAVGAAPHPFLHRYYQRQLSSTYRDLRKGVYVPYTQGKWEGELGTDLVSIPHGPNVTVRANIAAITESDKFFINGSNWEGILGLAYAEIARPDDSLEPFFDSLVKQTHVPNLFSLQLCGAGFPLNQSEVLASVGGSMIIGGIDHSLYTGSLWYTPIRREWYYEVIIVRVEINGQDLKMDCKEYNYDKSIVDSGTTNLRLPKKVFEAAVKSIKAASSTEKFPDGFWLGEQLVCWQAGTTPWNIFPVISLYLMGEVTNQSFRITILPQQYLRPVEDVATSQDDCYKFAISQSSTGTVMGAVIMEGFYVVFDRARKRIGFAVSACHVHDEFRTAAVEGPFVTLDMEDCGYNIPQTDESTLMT

First: Cc1cccc(C2CC(c3ccccc3)CCN2C(=O)[C@@H]2CNC[C@]23CCCc2nc(Cl)ccc23)c1 (stereo partly drawn) [Example 100, [(3R,4S)-2′-chloro-7′,8′-dihydro-6′H-spiro[pyrrolidine-3,5′-quinolin]-4-yl][2-(3-methylphenyl)-4-phenylpiperidin-1-yl]methanone]
Second: O=C([C@@H]1CNC[C@]12CCCc1nc(Cl)ccc12)N1CCC2(C=Cc3ccccc32)CC1c1ccccc1 (stereo partly drawn) [Example 77, [(3R,4S)-2′-chloro-7′,8′-dihydro-6′H-spiro[pyrrolidine-3,5′-quinolin]-4-yl](2′-phenyl-1′H-spiro[indene-1,4′-piperidin]-1′-yl)methanone]
The IC50 of the first is 2.2-fold higher: 0.45 µM for the first, 0.2 µM for the second. The second is the more potent here.

First: CC(C)[C@@H]1C[C@H](c2ccccc2)CCN1C(=O)[C@@H]1CNC[C@]12CCCc1ccccc12 [Example 7, (1R,4′S)-3,4-dihydro-2H-spiro[naphthalene-1,3′-pyrrolidin]-4′-yl[(2S,4R)-4-phenyl-2-(propan-2-yl)piperidin-1-yl]methanone]
Second: O=C([C@@H]1CNC[C@]12CCc1ccccc12)N1CC[C@@H](c2ccccc2)C[C@H]1c1ccccc1 [Example 21, (1R,4′S)-2,3-dihydrospiro[indene-1,3′-pyrrolidin]-4′-yl[(2S,4R)-2,4-diphenylpiperidin-1-yl]methanone]
The IC50 of the first is 310-fold higher: 22 µM for the first, 0.071 µM for the second. The second is the more potent here.

Compared with `COc1cccc2c1OCC[C@]21CNC[C@H]1C(=O)N1CC[C@@H](c2ccccc2)C[C@H]1C1CCCC(F)(F)C1` (stereo partly drawn) [Example 3, [(4R,4′S)-8-methoxy-2,3-dihydrospiro[chromene-4,3′-pyrrolidin]-4′-yl][(2S,4R)-2-(3,3-difluorocyclohexyl)-4-phenylpiperidin-1-yl]methanone], `CC(C)c1cccc2c1CCC[C@]21CNC[C@H]1C(=O)N1CCC(c2ccccc2)CC1` [Example 31, (4-phenylpiperidin-1-yl)[(1R,4′S)-5-(propan-2-yl)-3,4-dihydro-2H-spiro[naphthalene-1,3′-pyrrolidin]-4′-yl]methanone] is 91-fold lower in IC50: 2.19 µM for the first, 0.024 µM for the second.

Going from `O=C([C@@H]1CNC[C@]12CCc1cc(Br)ccc12)N1CCC(c2ccccc2)CC1` [Example 30, [(1R,4′S)-5-bromo-2,3-dihydrospiro[indene-1,3′-pyrrolidin]-4′-yl](4-phenylpiperidin-1-yl)methanone] to `O=C([C@@H]1CNC[C@]12CCCc1cc(Cl)ccc12)N1CCC(c2ccccc2)CC1` [Example 19, [(1R,4′S)-6-chloro-3,4-dihydro-2H-spiro[naphthalene-1,3′-pyrrolidin]-4′-yl](4-phenylpiperidin-1-yl)methanone], the IC50 falls from 14 µM to 0.92 µM (15-fold).

Compared with `CCc1ccc2c(c1)CCC[C@]21CNC[C@H]1C(=O)N1CCC(c2ccccc2)CC1` [Example 44, [(1R,4′S)-6-ethyl-3,4-dihydro-2H-spiro[naphthalene-1,3′-pyrrolidin]-4′-yl](4-phenylpiperidin-1-yl)methanone], `O=C([C@@H]1CNC[C@]12CCSc1ccccc12)N1CCC(c2ccccc2)CC1` [Example 38, (3R,4S)-2′,3′-dihydrospiro[pyrrolidine-3,4′-thiochromen]-4-yl(4-phenylpiperidin-1-yl)methanone] is 1.6-fold lower in IC50: 19 µM for the first, 12 µM for the second.

With `COC(C)(C)C1CCCCN1C(=O)[C@@H]1CNC[C@@]12CCCc1ccccc12` (stereo partly drawn) [Example 10, (1S,4′S)-3,4-dihydro-2H-spiro[naphthalene-1,3′-pyrrolidin]-4′-yl[2-(2-methoxypropan-2-yl)piperidin-1-yl]methanone] the IC50 was 20 µM.
